We go through four compounds from patent US20110293672A1, “PANCREATIC TUMOUR TREATMENT” (BIOCOMPATIBLES UK LIMITED, priority 2008, published 2011).

The test system of one experiment is advanced pancreas cancer. Conditions: single agent, patients with advanced pancreas cancer; cited from earlier work.
For experiment [1], the system named is PSN1 (Human Pancreatic Carcinoma) Cell Line. As to the kind of experiment: MTS cytotoxicity of irinotecan and topotecan solutions on PSN1 cells. It counts as cell-based. Conditions: for IC50: read-out: Estimated IC50 conc. Here is the method: 20,000 PSN1 cells were seeded in 96 well plates and left to adhere to the well surface overnight. The drug solutions underwent serial dilutions from 1000 μg/ml to 1×10^−8 μg/ml in cell culture media. […] After 24, 48 and 72 hrs, the cells were washed (×3) with PBS and 100 μl media was added. The MTS assay was conducted by adding 20 μl MTS solution to each well and incubating (37° C., 5% CO2) for 2 hrs. The absorbance of each well at 490 nm was determined using a Biotek plate reader.

Values after ≈ are worked out from the molar mass of the structure shown. Where two headings read alike, the source gives them in different places.

Regarding `O=c1[nH]cc(F)c(=O)[nH]1` [5-fluorouracil], in the experiment on advanced pancreas cancer, the Median survival is recorded as 4.4 months.
With `CCc1c2c(nc3ccc(OC(=O)N4CCC(N5CCCCC5)CC4)cc13)-c1cc3c(c(=O)n1C2)COC(=O)[C@]3(O)CC` [Irinotecan, irinotecan], the figures for the “Concentration at which a reduction in cell viability began” value in experiment [1] (24 hrs exposure) and in experiment [1] (48 hours) were 100 µg/mL and 10 µg/mL, respectively. The “Concentration at which an effect on cell viability began” value in experiment [1] (72 hours) is on record as “around 50 μg/ml”. The “Effect on cell viability at lower concentration” value in experiment [1] (<1 μg/ml, even after 72 hours) was “no detrimental effect in cell viability”. In addition, the IC50 in experiment [1] (Homo sapiens, 24 hrs exposure) was 100 µg/mL (≈ 170 µM); in experiment [1] (Homo sapiens, 48 hrs exposure), 35 µg/mL (≈ 59.7 µM); in experiment [1] (Homo sapiens, 72 hrs exposure), 30 µg/mL (≈ 51.1 µM).
For `CC[C@@]1(O)C(=O)OCc2c1cc1n(c2=O)Cc2cc3c(CN(C)C)c(O)ccc3nc2-1` [Topotecan, topotecan], the “Relative potency in reducing PSN1 cell viability” value in experiment [1] was “more potent than irinotecan”. Besides, the “Concentration at which a reduction in cell viability began” value in experiment [1] (24 hrs exposure) was found to be 1 µg/mL; in experiment [1] (48 hours), 0.1 µg/mL. Moreover, in experiment [1] (72 hours), the “Concentration at which an effect on cell viability began” value is 1e-07 µg/mL. For the same compound, the “Concentration needed for a reduction in cell viability below 80%” value in experiment [1] (72 hours) worked out at 0.01 µg/mL. Also, the IC50 in experiment [1] (Homo sapiens, 24 hrs exposure) is 600 µg/mL (≈ 1420 µM); in experiment [1] (Homo sapiens, 48 hrs exposure) it was 0.6 µg/mL (≈ 1.42 µM); in experiment [1] (Homo sapiens, 72 hrs exposure) it was 0.1 µg/mL (≈ 0.237 µM). In experiment [1] (Homo sapiens, 48 hours, 0.1 μg/ml), this compound showed a viability at 0.1 µg/mL of about 80%.
For `Nc1ccn([C@@H]2O[C@H](CO)[C@@H](O)C2(F)F)c(=O)n1` [gemcitabine], the Median survival with advanced pancreas cancer was 5.7 months.
